In patent US20100247659A1, “PHENYLPHTHALIMIDE ANALOGS FOR TREATING DIABETIC MACULAR EDEMA” (Charlesson, LLC, priority 2007, published 2010):

System: normal BN rats
Experiment: Ocular toxicity, histological analysis of the retina
Format: in vivo, rat
Settings: 2 μg/eye intravitreal, 4 weeks
Method: Histological analysis of the retina: To test the potential ocular toxicity of Compound 4, 8 week old normal BN rats received an intravitreal injection of Compound 4 (2.0 μg/eye, 5 μl/eye of 0.4 mg/ml in BN rat serum) or equal amount of BN rat serum, respectively. At various intervals after injection, the animals were sacrificed. The eyes then were removed, fixed in 4% formaldehyde, embedded in paraffin, and cut into 6-μm sections containing the whole retina. Paraffin-embedded sections were stained with hematoxylin-eosin (HE) and were examined.
Possible toxicities of CLT-033 were also examined using pathohistological examination 4 weeks after the drug administration. Retinal cross sections stained with H&E were examined under a light microscope.
Eight weeks old BN rats were received an intravitreal injection of Compound 4 (2.0 μg/eye, 5 μl/eye 0.4 mg/ml in BN rat serum) or equal amount of BN rat serum respectively (n=6). ERG was performed prior to study initiation and 1, 2, 3 and 4 weeks after the injection. Data shown no dramatic change in the a-wave and b-wave amplitudes in Compound 4-injected rats compared to vehicle-injected rats (FIG. 18A-18C). The animals were sacrificed 4 weeks after injection. The eye sections were observed under microscope with HE staining.

CC(C)c1cccc(C(C)C)c1N1C(=O)c2ccc(N)cc2C1=O [Compound 4]
retinal morphology, H&E sections: No apparent morphological change or immunoresponse
